Source: US8017350B2, “Glimepiride- and insulin-induced glycosylphosphatidylinositol-specific phospholipase C regulation” (Sanofi-Aventis Deutschland GmbH, priority 2004, dated 2011)

Experiments:
[1] = test system: rat adipocyte GPI-PLC; assay: adipocyte GPI-PLC assay (plasma membranes or hc/lcDIGs, AChE substrate, TX-114 partitioning); assay type: biochemical
Method: GPI-PLD (rat serum) was assayed according to “Hari et al. (1997) Biochim. Biophys. Acta 1355: 293-302” by incubation with 10 μl of human placental aP solution (100 U/ml in 10 mM Hepes/NaOH, pH 7.0, 150 mM NaCl) in 100 μl of 200 mM Tris/maleate (pH 7.0) and 1% Nonidet P-40 for 10 min at 37° C. and subsequent termination of the reaction by addition of 0.4 ml of ice-cold stop buffer (10 mM Hepes/NaOH, pH 7.0, 150 mM NaCl, 0.1 mM MgCl2 and 0.01 mM zinc acetate). GPI-PLC (T. brucei) was assayed as described in “Mensa-Wilmot et al. (1995) Methods Enzymol. 250: 641-655” by incubation with 5 μl of human placental aP solution (see above) in 50 μl of 50 mM Tris/HCl (pH 8.0), 0.25% Nonidet P-40 and 5 mM EDTA for 30 min at 37° C. and subsequent termination of the reaction by addition of 0.45 ml of stop buffer. PI-PLC (B. cereus) and adipocyte GPI-PLC (5-25 μg plasma membranes or hc/lcDIGs) were assayed by incubation with 10 μl of bovine erythrocyte acetylcholinesterase (AChE) solution (12 U/ml in 10 mM Tris/HCl, pH 7.4, 144 mM NaCl, 0.1% TX-100) in 100 μl of 20 mM Hepes/KOH (pH 7.8), 144 mM NaCl, 0.1% TX-100, 0.2 mM MgCl2 for 1 h at 25° C. and subsequent termination by adding 5 μl of glacial acetic acid and then 0.4 ml of 10 mM Tris/HCl (pH 7.4), 144 mM NaCl. Each reaction mixture was subjected to TX-114 partitioning (see below).
Pelleted hc/lcDIGs (10-50 μg protein) or (G)PI-PLC reaction mixtures (0.5 ml) were separated into amphiphilic and hydrophilic proteins using partitioning between TX-114-enriched and depleted phases according to “Bordier, C., (1981) J. Biol, Chem. […]” by suspending in 1 ml of ice-cold TX-114 (1%), 25 mM Tris/HCl (pH 7.4), 144 mM NaCl or mixing with 0.5 ml of ice-cold TX-114 (2%), respectively. After incubation for 1 h on ice, the mixture was layered onto a cushion of 0.4 ml of 0.25 M sucrose and 25 mM Tris/HCl (pH 7.4) on ice. Phase separation was induced by warming up to 37° C. and subsequent centrifugation (10,000×g, 1 min). After re-extraction of the lower TX-114-enriched phase, aliquots of the pooled upper TX-114-depleted phase were measured for 5′-Nuc, aP and AChE activity or precipitated (15 polyethylene glycol 4000) for SDS-PAGE analysis.
Table 1: GPI-PLC of hcDIGs from rat adipocytes, GPI-PLC from T. brucei and PI-PLC from B. cereus were incubated with solubilized and partially purified bovine erythrocyte AChE or human placental aP in the absence or presence of increasing concentrations (0.05 μM-1 mM) of the inhibitors indicated under appropriate conditions (see Materials and Methods). Cleavage rate was calculated from the amount of hydrophilic AChE and aP activity recovered with the TX-114-depleted phase upon TX-114 partitioning. […]

[2] = test system: GPI-anchored and acylated signaling proteins (pp59Lyn, Gce1, 5'-Nuc, aP) in DIGs of rat adipocytes; assay: Redistribution of pp59Lyn, Gce1, 5'-Nuc and aP from hcDIGs to lcDIGs in rat adipocytes; assay type: cell-based; details: GPI-2350 50 μM; Tab. 2

CCCCCCCCCCCCP1(=O)O[C@@H]2[C@H](O)[C@@H](O)[C@H](O)[C@@H](O)[C@@H]2O1 (stereo partly drawn) [GPI-2350, myo-inositol-1,2-cyclo-dodecylphosphonic acid]
IC50 ([1]; GPI-PLC of hcDIGs from rat adipocytes, inhibitor 0.05 μM-1 mM): 200 to 500 nM
lipolytic cleavage of AChE after washout ([1]; hcDIGs treated with 50 μM, reisolated, extensively washed, incubated without inhibitor): only low lipolytic cleavage
effect on glimepiride-induced redistribution of 5'-Nuc, Gce1 and aP [2]: completely eliminated
